Non-standard residues stand in square brackets, D forms with d. Primed or numbered codes have the meaning given here. No end group written: not given here. *: point of attachment. FITC = O=C1OC2(c3ccc(O)cc3Oc3cc(O)ccc32)c2ccc(NC(=S)*)cc21; PEG4′ = not defined here; PEG5′ = not defined here; Ahx = NCCCCCC(=O)O
Assays:
HT-1080 cells tumor = experiment: Delivery test on anticancer agent in tumor-bearing mice; assay type: in vivo, BALB/c nude mouse
Description: HT-1080 cells (1×10^7 cells/200 μL) were subcutaneously implanted into the back of 5 week-old BALB/c nude mouse (CHARLES RIVER LABORATORIES JAPAN, INC.). A tumor after the implantation was confirmed to reach 30 to 60 mm^3, and then they were subjected to the following tests.
Example 2 was dissolved in the sterile water and adjusted to be 200 μg/200 μL by the addition of 2-time concentrated α-MEM (not containing glutamine or an antibiotic). It was intraperitoneally administered to tumor-bearing mice at 10 mg/kg every 3 days. In the control administration group, 200 μL of 1-time concentrated α-MEM was intraperitoneally administered to tumor-bearing mice every 3 days. The mice were weighed on DRETEC weighing scale (DRETEC CO., Ltd., Japan) and the tumor size (estimation volume (shortest diameter×longer diameter×height×pi/6 mm^3)) was measured with a vernier caliper (maximum: 150 mm, minimum: 0.05 mm) (MITUTOYO, Japan) every 3 days.
Example 3 and Comparative Example 4 (Dox) were treated to be at 5 or 1.2 mg/kg, respectively in the same manner as that of Example 2, and administered to the tumor-bearing mice. The tumor size was measured by the same procedure as above.
FIG. 7 is a graph illustrating transitions of tumor size in the control (N=2), Comparative Example 4(N=2) and Example 3 administration group (N=2). The vertical axis represents the average value of tumor size±standard deviation (SD) and the horizontal axis represents the days after administration. […] The tumor size day 24 grew to about 2,000 mm^3 in the control and Comparative Example 4 administration group. […] That is, the tumors largely shrank due to not only anticancer effect of the peptide itself but also the effect of the anticancer agent. The peptides of the present invention specifically act on the target cells compared with the single administration of the anticancer agent and have high toxicity against the cancer cells.

HT-1080 cells [1] = experiment: Test of inducing cell-death in vitro (Calcein-AM/PI dead cell rate); assay type: cell-based, human; conditions: 9th day
Source text: Human fibrosarcoma-derived HT-1080 cells (HT-1080 cells, JCRB cell bank) were used as cancer cells in the test for monitoring changes in mitochondrial membrane potential. HT-1080 cells, human osteosarcoma cell line Hos cells (Hos cells, JCRB cell bank), human histiocytic lymphoma/macrophage U937 cells (U937 cells, JCRB cell bank), human myeloid leukemia HL-60 cells (HL-60 cells, JCRB cell bank), acute monocytic leukemia THP-1 cells (THP-1 cells, JCRB cell bank), human alveolar basal epithelial adenocarcinoma cell A549 cells (A549 cells, Cell Resource Center for Biomedical Research, Institute of Development, Aging and Cancer, Tohoku University), human pancreatic carcinoma cells (MIA Paca 2 cells, Cell Resource Center for Biomedical Research, Institute of Development, Aging and Cancer, Tohoku University) and well differentiated human liver carcinoma-derived cell line HuH7 cells (HuH7 cells, Cell Resource Center for Biomedical Research, Institute of Development, Aging and Cancer, Tohoku University) were used as cancer cells in an in vitro cell-death induction test of cancer cells and a nuclear transport test of Example 2. Normal human gingival fibroblast cells Gin-1 (Gin-1 cells, DS Pharma Biomedical) were used as a control. The above-described cells were each inoculated into a 96-well culture plate (Falcon) at 5,000 cells/[…] and subjected to the following tests.
The peptide of SEQ ID NO: 1 labeled with FITC (Example 2) was used for the test of inducing cell-death in vitro in cancer cells. It was prepared the test example to which 100 μL of Example 2 and further 10% FBS were added and cultured for 9 days under conditions of 200 μL of serum-supplemented medium (Alpha modification of Eagle's MEM (α-MEM) (Thermo Fisher Scientific)+10% FBS). Furthermore, it was also produced the test example that was cultured for 21 days with the whole amount of Example 2-supplemented medium replaced every 7 days. As a control, the cells were cultured in a serum-supplemented medium (α-MEM+10% FBS) without addition and were used. A supernatant was removed after the completion of the culture. The cells were washed once with PBS and stained in PBS to which a fluorescent dye for living cell staining Calcein-AM (DOJINDO LABORATORIES) (final concentration: 0.1 μg/mL) and a fluorescent dye for dead cell staining Propidium Iodide (PI) (DOJINDO LABORATORIES) (final concentration: 0.3 μg/mL) were added, at 37° C. in a 5% CO2 cell incubator for 30 minutes. The living cells and dead cells were separately stained with Calcein-AM and PI, respectively and imaged with the confocal laser scanning microscope LSM800. Next, the dead cell rate relative to the number of total cells was analyzed using ImageJ.
The results are represented by the average value of the dead cell rate (the number red cells stained with IP/the number of total cells×100(%))±standard deviation (SD). In FIG. 2A, the vertical axis represents the rate of cell death when each cell was cultured with Example 2 (50 μg/mL) for 9 days and the horizontal axis represents various types of cells. The increase in the dead cell rate of the Gin-1 cells was not observed.
The concentrations of Examples 2 and 4 to 6 were adjusted to 12.5, 25, 50 and 100 μg/mL, respectively and then administrated to the HT-1080 cells for 9 days tested by the same method as in Test Example 2A. The cell staining and subsequent analyses of the dead cell rate relative to the number of total cells were performed in the same manner as Test Example 2A.

Gin-1 cells = experiment: Test of monitoring changes in mitochondrial membrane potential (JC-1 apoptosis rate), normal cells; assay type: cell-based, human; conditions: 50 μg/mL
Description: (§1) Human fibrosarcoma-derived HT-1080 cells (HT-1080 cells, JCRB cell bank) were used as cancer cells in the test for monitoring changes in mitochondrial membrane potential. […]
(§2) The synthetic peptide of Example 1 or Comparative Examples 1 to 3 was individually added to the HT-1080 cells, and the cells were cultured in a serum-supplemented medium (α-MEM+10% FBS). […] Further, the cells were washed once with PBS followed by the addition of 100 μL of PBS, scanned with a confocal laser scanning microscope LSM800 (Zeiss) and then analyzed with ImageJ. […]

HT-1080 cells [2] = experiment: Test of monitoring changes in mitochondrial membrane potential (JC-1 apoptosis rate); assay type: cell-based, human; conditions: 7 days, Example 1 at 25, 50 and 100 μg/mL, Comparative Examples at 50 and 100 μg/mL
Description: as §1, §2

## COc1cccc2c1C(=O)c1c(O)c3c(c(O)c1C2=O)C[C@@](O)(C(=O)CO)C[C@@H]3O[C@H]1C[C@H](N)[C@H](O)[C@H](C)O1 [Comparative Example 4, Doxorubicin, reference compound]
HT-1080 cells tumor; 1.2 mg/kg, day 24, N=2
  tumor size: about 2,000 mm^3

## Example 3 ({doxorubicin-PEG5′-DBCO‑azide-PEG4′}-KDNRGNLLQCVCTGNGRGEWKC; cysteine pairing not given here)
HT-1080 cells tumor; 5 mg/kg, between days 18 and 24, N=2
  suppression of tumor proliferation compared with the control and Comparative Example 4 administration group: significant difference at the level of 1%
HT-1080 cells tumor; 5 mg/kg, to the day 24
  suppression effect on tumor: suppression effect was confirmed

## Example 5: peptide of SEQ ID NO: 2 labeled with FITC via an Ahx linker at the N-terminus ({FITC}-[Ahx]KDNRGNLLQCICTGNGRGEWKC; cysteine pairing not given here)
HT-1080 cells [1]; 50 or 100 μg/mL
  dead cell rate: ≥ 50%

## Example 6: peptide of SEQ ID NO: 6 labeled with FITC via an Ahx linker at the N-terminus ({FITC}-[Ahx]KHGLYNLKQCKMSLNGQRGECWC; cysteine pairing not given here)
HT-1080 cells [1]; 12.5 μg/mL substantially same as 100 μg/mL
  dead cell rate: about 35%

## KDNRGNLLQCVCTGNGRGEWKC (This is derived from a part of CD ligand.; BINDING (3)..(6); BINDING (13)..(17)) [Example 1]
Gin-1 cells
  increase in apoptosis rate: not observed
HT-1080 cells [2]
  increase in apoptosis rate (number of green cell dyed with JC1/number of total cells): increase in apoptosis rate of the HT-1080 cells was confirmed

Reference: patent publication US12472226B2, “Cell-permeable peptide” (priority 2019, dated 2025)
